Legend:
Assay type in all cases: in vivo
Aphis gossypii = experiment: Cotton aphid (Aphis gossypii) mortality test on dipped cotton plants; conditions: 120 h, cotton cotyledons dipped, aphid mortality determined after 5 days, read-out: mortality in comparison with untreated controls
Description: (§1) The active compounds were formulated • a. for testing the activity against Aphis gossypii, Myzus persicae, and Aphis fabae, as 50:50 acetone:water solutions amended with 100 ppm Kinetic® (surfactant), • b. for testing the activity against Spodoptera eridania as a 10.000 ppm solution in a mixture of 35% acetone and water, which was diluted with water, if needed.
(§2) After the experiments were completed, in each case the lowest concentration was determined at which the compound still caused an 75 to 100% inhibition or mortality in comparison with untreated controls (limit or minimal concentration).
B.1 Cotton Aphid (Aphis gossypii)
(§3) Cotton plants in the cotyledon stage (variety ‘Delta Pine’) are infested with approximately 100 laboratory-reared aphids by placing infested leaf sections on top of the test plants. The leaf sections are removed after 24 hr. The cotyledons of the intact plants are dipped into gradient solutions of the test compound. Aphid mortality on the treated plants, relative to mortality on check plants, is determined after 5 days.

Myzus persicae = experiment: Green peach aphid (Myzus persicae) mortality test on dipped pepper plants; conditions: 120 h, pepper plant leaves dipped, aphid mortality determined after 5 days, read-out: mortality in comparison with untreated controls
Description: as §1, §2
B.2 Green Peach Aphid (Myzus persicae)
as §3, with “Pepper” for “Cotton”, “2nd leaf-pair” for “cotyledon”, “‘California Wonder’)” for “‘Delta Pine’)”, “40” for “100”, “leaves” for “cotyledons”

Aphis fabae = experiment: Bean aphid (Aphis fabae) mortality test on dipped nasturtium plants; conditions: foliar, 72 h, nasturtium foliage and stem dipped, aphid mortality determined after 3 days, read-out: mortality in comparison with untreated controls
Description: as §1, §2
B.3 Bean Aphid (Aphis fabae)
Nasturtium plants in the 1st leaf-pair stage (variety ‘Mixed Jewel’) are infested with approximately 25 laboratory-reared aphids by placing infested cut plants on top of the test plants. The cut plants are removed after 24 hr. The foliage and stem of the test plants are dipped into gradient solutions of the test compound. Aphid mortality is determined after 3 days.

Measured: mortality at 300 ppm

O=C(OCCNC(=S)NC1CCc2ccccc21)c1ccncc1 (racemic) [Example 13, Isonicotinic acid 2-(3-indan-1-yl-thioureido)-ethyl ester]
> 80%: all assays above

COCC(=O)OCCNC(=S)NC1CCc2ccccc21 (racemic) [Example 14, Methoxy-acetic acid 2-(3-indan-1-yl-thioureido)-ethyl ester]
> 80%: all assays above

— patent US7674827B2, “Indanyl- and tetrahydronaphtyl-amino-thiourea compounds for combating animal pests” (BASF SE, priority 2005, dated 2010)
